Literature values, collected in patent publication US12471592B2, “Cytoprotective compositions for short-term cells storage and transportation without cryopreservation and deep freezing” (priority 2021, dated 2025).
Where two headings read alike, the source gives them in different places.

Legend:
[1] = test system: Chinese hamster ovary cell lines
[2] = test system: vascular endothelial cells; conditions: vitrifying concentrations, 2-4° C. for 9 min
mouse oocytes = conditions: increasing molarity
mouse morula = conditions: for minimum concentration giving significant reduction of mouse morula survival: 5 min of 25° C. exposure
mouse blastocysts = conditions: for blastocysts survived: 20% vol/vol CPAs for 40 min at room temperature; for blastocysts subsequently developed: 30% vol/vol CPAs for 10 min at room temperature
[3] = test system: vascular endothelial cells; conditions: for increase of permeability: raising the temperature from 2-4° C. to 22° C.; for Permeability: vascular endothelial cells, 2-4° C.
Rat retina cells = conditions: 24 hr exposure
bacteria = conditions: 33% DMSO for 10 min
fibroblasts = conditions: 1% DMSO, within 5 sec
endothelial cells = conditions: reducing concentration from 3.0 M to 2.0 M
[4] = test system: ARPE 19 human retinal pigment epithelial cell line
[5] = cytochrome P450 oxidation system added

Row | SMILES | chromosome damage ([1]; without oxidation system) | cell survival [2] [%] | minimum concentration giving significant reduction of mouse morula survival (mouse morula) [M] | blastocysts survived (mouse blastocysts) [%] | blastocysts subsequently developed (mouse blastocysts) [%] | increase of permeability [3] | Permeability [3] [cm/sec×10^−6] | also measured
1 | CC(O)CO (stereo not drawn) [PG, propylene glycol] | substantial chromosome damage | 63.6 | 4 | 87.5 | 2.1 | 13 fold | 3.0 | concentration impairing the developmental potential of mouse zygotes by decreasing intracellular pH (mouse zygotes): > 2.5 M; formaldehyde increase relative to DMSO or GLY (mouse oocytes): more than 30 fold
2 | C[S+](C)[O-] [DMSO, dimethylsulfoxide] | No chromosome damage | 37.0 | 5 | 96.7 | 25.0 | 17 fold | 2.4 | chromosome damage [1, 5]: not; concentration at which apoptosis was exhibited (Rat retina cells): ≥ 0.1 % vol/vol; concentrations giving dose-dependent reduction in rat heart rate (rat heart rate): above 0.14 M; increase in mutagenicity (bacteria): 10 fold; increase of intracellular calcium (fibroblasts): two- to six-fold; concentration giving irreversible ultrastructural alterations to rat myocardium (rat myocardium; at 15° C.): above 2.82 M; concentration giving irreversible ultrastructural alterations to rat myocardium (rat myocardium; at 30° C.): above 1.41 M; factor by which endothelial cell loss was cut (endothelial cells): 3
3 | CC(O)C(C)O (stereo not drawn) [BD, 2,3-butanediol] | – | 76.3 | – | 8.3 | 8.7 | 17 fold | 4.1 | factor by which endothelial cell loss was cut (endothelial cells): 35
4 | CO [METH, methanol] | – | – | – | – | – | – | – | concentrations resulting in protein damage or proteolysis (fish oocytes): above 6 M; concentration showing reduced mouse morula survival (mouse morula; 10 min exposure): 6 M
5 | OCC(O)CO [GLY, glycerol] | – | – | 6 | 81.7 | – | – | – | –
6 | OCCO [EG, ethylene glycol] | No chromosome damage | 33.2 | 7 | 95.8 | 74.6 | nine-fold | 2.0 | chromosome damage [1, 5]: substantial chromosome damage
7 | CC(O)CCO (stereo not drawn) [1,3-butanediol] | – | – | – | 64.2 | – | – | – | –
8 | O=c1c(O)c(-c2ccc(O)c(O)c2)oc2cc(O)cc(O)c12 [quercetin] | – | – | – | – | – | – | – | level of ROS ([4]; compared with the control groups, 300 μM H2O2): decreased; cell viability ([4]; pretreated with quercetin (0.80 μM) before exposure to 300 μM H2O2): preserved in quercetin group in a dose dependent manner, particularly at 20 μM
